Measured values reported in the NIST ThermoML archive (doi:10.1021/je050065n).

Legend:
[1] = Molar enthalpy of transition or fusion; conditions: Crystal
[2] = molar heat capacity at constant pressure; conditions: 101.33 kPa

CCCCCCCCCCC(=O)OCC [ethyl undecanoate]
Conditions	Molar enthalpy of transition or fusion [kcal/mol]	Normal melting temperature [°C]	Triple point temperature [K]
Crystal	–	–	259.17
Metastable crystal	–	-21.8	–
[1]	8.628	–	–

[2]
Conditions	molar heat capacity at constant pressure [J/K/mol]
111.58 K, Crystal	173.66
113.84 K, Crystal	175.94
116.71 K, Crystal	178.91
119.57 K, Crystal	181.88
122.42 K, Crystal	185.27
128.15 K, Crystal	190.48
131.02 K, Crystal	194.47
133.86 K, Crystal	198.69
136.66 K, Crystal	198.56
139.44 K, Crystal	201.64
142.19 K, Crystal	204.69
144.9 K, Crystal	207.94
147.59 K, Crystal	211.29
150.26 K, Crystal	213.75
152.89 K, Crystal	217.3
155.51 K, Crystal	220.97
158.1 K, Crystal	224.09
160.67 K, Crystal	229.12
163.21 K, Crystal	233.25
165.73 K, Crystal	236.15
168.24 K, Crystal	230.57
170.74 K, Crystal	232.17
173.23 K, Crystal	234.76
175.7 K, Crystal	236.78
178.15 K, Crystal	239.4
180.59 K, Crystal	242.15
183.01 K, Crystal	244.19
185.42 K, Crystal	245.75
187.81 K, Crystal	248.17
190.18 K, Crystal	251.89
192.55 K, Crystal	256.43
194.9 K, Crystal	257.21
197.24 K, Crystal	257.78
199.56 K, Crystal	262.12
201.88 K, Crystal	266.33
204.18 K, Crystal	269.86
206.47 K, Crystal	268.45
208.75 K, Crystal	272.25
211.01 K, Crystal	276.09
213.26 K, Crystal	279.59
215.5 K, Crystal	279.55
217.73 K, Crystal	283.48
219.95 K, Crystal	287.5
222.16 K, Crystal	290.42
224.36 K, Crystal	293.74
226.54 K, Crystal	297.69
228.71 K, Crystal	302.05
230.87 K, Crystal	307.08
233.01 K, Crystal	312.1
235.14 K, Crystal	318.94
237.26 K, Crystal	327.12
239.36 K, Crystal	337.32
241.44 K, Crystal	349.15
243.49 K, Crystal	366.65
245.51 K, Crystal	390.29
247.49 K, Crystal	425.06
265.23 K, Liquid	419.66
267.18 K, Liquid	419.56
269.12 K, Liquid	420.55
271.06 K, Liquid	421.01
272.99 K, Liquid	421.34
274.93 K, Liquid	422.4
276.86 K, Liquid	423.5
278.79 K, Liquid	424.54
280.72 K, Liquid	424.74
282.65 K, Liquid	425.25
284.57 K, Liquid	425.82
286.49 K, Liquid	426.92
288.42 K, Liquid	427.56
290.34 K, Liquid	427.6
292.25 K, Liquid	429.47
292.35 K, Liquid	429.73
293.82 K, Liquid	430.15
294.17 K, Liquid	430.48
295.74 K, Liquid	431.35
296.09 K, Liquid	431.3
297.65 K, Liquid	432.04
298 K, Liquid	431.45
299.55 K, Liquid	433.51
299.92 K, Liquid	432.3
301.45 K, Liquid	434.67
301.84 K, Liquid	434.2
303.35 K, Liquid	436.03
303.75 K, Liquid	436.09
305.23 K, Liquid	437.3
305.67 K, Liquid	436.86
307.12 K, Liquid	438.29
307.58 K, Liquid	437.94
309 K, Liquid	438.55
309.5 K, Liquid	438.69
310.87 K, Liquid	439.73
311.41 K, Liquid	439.51
312.74 K, Liquid	440.36
313.32 K, Liquid	440.63
314.61 K, Liquid	441.72
315.24 K, Liquid	441.69
316.48 K, Liquid	441.83
317.15 K, Liquid	443.16
318.35 K, Liquid	443.44
320.22 K, Liquid	444.36
322.09 K, Liquid	445.9
323.96 K, Liquid	447.6
325.83 K, Liquid	448.49
327.7 K, Liquid	449.5
329.57 K, Liquid	450.4
331.44 K, Liquid	451.66
333.31 K, Liquid	453.33
335.19 K, Liquid	455.41
337.06 K, Liquid	456.14
338.94 K, Liquid	456.81
340.81 K, Liquid	458.35
342.69 K, Liquid	459.47
344.57 K, Liquid	461
346.45 K, Liquid	462.31
348.34 K, Liquid	463.75
350.22 K, Liquid	465.1
352.11 K, Liquid	466.34
354 K, Liquid	467.34
355.9 K, Liquid	468.59
357.8 K, Liquid	469.5
359.7 K, Liquid	471.05
361.6 K, Liquid	472.21
363.51 K, Liquid	473.69
365.42 K, Liquid	475.18
